Measured values as given in patent US20230020161A1, “Tricyclic Modulators of PP2A” (Rappta Therapeutics Oy, priority 2020, published 2023).

Experiments:
LNCaP cells = experiment: Cell viability assay (MTS) in LNCaP cells; type: cell-based; conditions: doses 1 μM to 80 μM
Protocol: Cell line LNCaP was used for this assay. LNCaP cells were plated in 96-well plates at a density of 5000 cells per well. After 24 hours of plating, cells were treated with increasing doses of compound ranging from 1 μM to 80 μM. Relative cell numbers were analyzed after 48 hours using a 3-(4,5-dimethylthiazol-2-yl)-5-(3-carboxymethoxyphenyl)-2-(4-sulfophenyl)-2H-tetrazolium (MTS) assay (Promega) according to the manufacturer's directions.
LNCaP cells were treated with increasing doses of Target compound and cell viability was measured at 48 hours by MTS analysis.
The cell viability data was analyzed with GraphPad Prism software. The values were log transformed and analyzed with nonlinear regression (curve-fit) using log(inhibitor) vs. response variable slope (four parameters) and constraining the bottom to equal zero.

[1] = target: T1, Human Pregnane X Receptor (PXR, NR1I2) (Homo sapiens, UniProt O75469); experiment: PXR activation assay (Puracyp DPX2-96-001); type: cell-based
T1 construct: host or cells: DPX2 cells of the kit
T1 sequence (O75469 1-434): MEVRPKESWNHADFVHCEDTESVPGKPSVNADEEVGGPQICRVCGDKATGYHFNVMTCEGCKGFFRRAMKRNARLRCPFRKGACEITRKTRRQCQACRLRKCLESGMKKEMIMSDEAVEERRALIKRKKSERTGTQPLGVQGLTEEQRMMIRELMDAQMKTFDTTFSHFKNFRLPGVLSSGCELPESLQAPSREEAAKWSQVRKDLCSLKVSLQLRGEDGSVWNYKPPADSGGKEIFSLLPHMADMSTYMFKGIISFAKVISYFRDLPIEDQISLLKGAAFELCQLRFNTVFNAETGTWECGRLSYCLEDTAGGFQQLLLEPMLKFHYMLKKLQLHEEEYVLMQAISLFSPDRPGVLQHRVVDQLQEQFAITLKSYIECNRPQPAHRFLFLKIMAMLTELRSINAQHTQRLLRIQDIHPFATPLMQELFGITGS
Text: PXR is a nuclear hormone receptor involved in the transcriptional regulation of a number of metabolic enzymes (e.g. CYP3A4) and transporters (e.g. PGP). Its activation by xenobiotic substances leads to upregulation of those metabolic enzymes and transporters and consequent removal of those substances from systemic circulation. It is not uncommon to find that drugs activate the PXR receptor with problematic consequences. […] In addition, if the drug itself is metabolized by, for example, CYP3A4, then there can be reduced exposure of the drug on repeated administration (auto-induction). It is thus considered beneficial to eliminate or at least minimize PXR activation if drug candidates. For drug series where PXR activation is significant, PXR activation is generally treated as a key criterion for optimization and advancement (V. Chu et al., Drug Metab. Dispos. 37, 1339 (2009).
PXR activation assay was performed according to manufacturer's instructions (Puracyp, Inc, Catalog #DPX2-96-001).

[2] = Concentration observed is at 10 μM

SMILES	GI50 (LNCaP cells; Homo sapiens, LNCaP, 48 h) [µM]	Maximum fold activation observed (Average) [1, 2]	Percent positive control response [1, 2] [%]	GI50 (LNCaP cells; 48 hours) [µM]	Percent positive control response ([1]; @30 μM)
N=[S@](=O)(N[C@@H]1COC[C@H](n2c3ccc(Cl)cc3c3cc(Cl)ccc32)[C@H]1O)c1ccc(OC(F)(F)F)cc1 (relative stereo) [Target T17-1]	10.2	2.43	9.75		
N=[S@@](=O)(N[C@@H]1COC[C@H](n2c3ccc(Cl)cc3c3cc(Cl)ccc32)[C@H]1O)c1ccc(OC(F)(F)F)cc1 (relative stereo) [Target T17-2]	9.64	2.45	9.88		
O=S(=O)(N[C@@H]1COC[C@H](N2c3ccccc3Oc3ccccc32)[C@H]1O)c1ccc(OC(F)(F)F)cc1 [Target T13, reference compound]		11	57	14.2	
O=S(=O)(N[C@@H]1COC[C@H](n2c3ccc(Cl)cc3c3cc(Cl)ccc32)[C@H]1O)c1ccc(OC(F)(F)F)cc1 [Target T16, reference compound]	8.2	3.93	16.7		
CCCN=S(=O)(N[C@@H]1COC[C@H](N2c3ccccc3Oc3ccccc32)[C@H]1O)c1ccc(OC(F)(F)F)cc1 (stereo partly drawn) [Target T15C, N-((3R,4R,5S)-4-hydroxy-5-(10H-phenoxazin-10-yl)tetrahydro-2H-pyran-3-yl)-N′-propyl-4-(trifluoromethoxy) benzenesulfonimidoamide]	55.4				
CN=[S@](=O)(NC[C@H](O)CN1c2ccccc2CCc2ccccc21)c1ccc(OC(F)(F)F)cc1 (single isomer, unassigned) [Target T6d2]	24.5				
CN=[S@@](=O)(N[C@@H]1COC[C@H](n2c3ccc(Cl)cc3c3cc(Cl)ccc32)[C@H]1O)c1ccc(OC(F)(F)F)cc1 (relative stereo) [Target T18-2]	12.2	2.36	9.23		
O=S(=O)(N[C@@H]1COC[C@H](N2c3ccccc3Oc3ccccc32)[C@H]1O)c1ccc(OC(F)(F)F)cc1 [T10 (DT-061), reference compound]	10.7	17.3	89.8		
N=[S@](=O)(NC[C@H](O)CN1c2ccccc2CCc2ccccc21)c1ccc(OC(F)(F)F)cc1 (single isomer, unassigned) [Target T5d2]	20.2				
CN=[S@](=O)(N[C@@H]1COC[C@H](n2c3ccc(Cl)cc3c3cc(Cl)ccc32)[C@H]1O)c1ccc(OC(F)(F)F)cc1 (relative stereo) [Target T18-1]	8.53	1.79	5.37		
CN=[S@](=O)(N[C@@H]1COC[C@H](N2c3ccccc3Oc3ccccc32)[C@H]1O)c1ccc(OC(F)(F)F)cc1 (relative stereo) [Target T15-1]	16.6	3.89	19.6		
N=[S@@](=O)(NC[C@H](O)CN1c2ccccc2CCc2ccccc21)c1ccc(OC(F)(F)F)cc1 (single isomer, unassigned) [Target T5d1]	25.8				
O=S(=NCC1CC1)(N[C@@H]1COC[C@H](N2c3ccccc3Oc3ccccc32)[C@H]1O)c1ccc(OC(F)(F)F)cc1 (stereo partly drawn) [Target T15A, N-(cyclopropylmethyl)-N′-((3R,4R,5S)-4-hydroxy-5-(10H-phenoxazin-10-yl)tetrahydro-2H-pyran-3-yl)-4-(trifluoromethoxy) benzenesulfonimidoamide]	9.54				
N=[S@](=O)(N[C@@H]1CCC[C@H](N2c3ccccc3Oc3ccccc32)[C@H]1O)c1ccc(OC(F)(F)F)cc1 (relative stereo) [Target T11-1]	16.7	4.57	24.2		
N=[S@@](=O)(N[C@@H]1CCC[C@H](N2c3ccccc3Oc3ccccc32)[C@H]1O)c1ccc(OC(F)(F)F)cc1 (relative stereo) [Target T11-2]	16.8	4.82	26		
CN=[S@@](=O)(N[C@@H]1COC[C@H](N2c3ccccc3Oc3ccccc32)[C@H]1O)c1ccc(OC(F)(F)F)cc1 (relative stereo) [Target T15-2]	23.6	7.15	41.8		
N=[S@](=O)(N[C@@H]1COC[C@H](N2c3ccccc3Oc3ccccc32)[C@H]1O)c1ccc(OC(F)(F)F)cc1 (relative stereo) [Target T14-1]	25.6	6.21			35.4 @30 μM %
CN=[S@@](=O)(NC[C@H](O)CN1c2ccccc2CCc2ccccc21)c1ccc(OC(F)(F)F)cc1 (single isomer, unassigned) [Target T6d1]	22.7				
N=[S@@](=O)(N[C@@H]1COC[C@H](N2c3ccccc3Oc3ccccc32)[C@H]1O)c1ccc(OC(F)(F)F)cc1 (relative stereo) [Target T14-2]	25.6	4.12	21.2		
